Read-outs that look alike come from different tables or passages of the source.
Tests used:
Conditions in all cases: for EC50: Human immunodeficiency virus 1, PBMC, read-out: E.C.50 CQ; for S.I. CQ / Fen. CQ (fold): PBMC; for S.I. CQ: I.C.50/E.C.50; for Fen. CQ (fold): ratio to HIV-IIIB
[1] = system: HIV clinical isolated, characterised by mutations in the RT gene inducing geno-phenotypic resistance to ddI; experiment: p24 production susceptibility test (ACTG protocol), Table 2; type: cell-based, HIV-1
Source text: (§1) For the phenotype of the nucleosidic, non-nucleosidic and proteases inhibitors was utilised a method which consider the use of human PBMC and the protocol standardised by the AIDS Clinical Trials Group, after verifying the genotype by sequence analysis.
(§2) In order to assay in vitro the susceptibility to chloroquine and hydroxychloroquine of the viral strains, it was used the protocol of the ACTG which is characterised by the measure, of the production of antigen p24 in strongly infected cells.
(§3) The susceptibility of the viral strains to chemotherapics was determined in cell cultures, prepared in 96 wells microplates, using, for the infection, 0.1 MOI.
(§4) The supernatant of the infected cultures (either in absence or in presence of different concentrations of chemotherapic) were tested for the production of p24 after 7 days, using an ELISA test which is commercially available.
(§5) The concentrations of chloroquine and hydroxychloroquine tested ranged from 0.5 to 15 uM. At the same time non-infected cells were incubated with concentrations of chloroquine and hydroxychloroquine ranging from 0 to 50 uM to evaluate the toxicity of the compound.
(§6) After 4 day from the infection, half the cellular medium was replaced with a medium containing the corresponding dilution of chloroquine and hydroxychloroquine. The percentage of inhibition of the HIV replication, induced by chloroquine and hydroxychloroquine, was determined, after 7 day from the infection, comparing the levels of p24 of this cultures and that of the control, infected and not treated with chloroquine and hydroxychloroquine.
(§7) Therefore, the E.C.50 of chloroquine and hydroxychloroquine expresses the concentration of chemotherapic that inhibits the 50% of production of p24 and the values were calculated using linear and non linear regression analysis (the significativity for the non linear regression was R^2>0.95).
(§8) In the same experimental conditions and in the same day, but with similar concentrations of chloroquine and hydroxychloroquine, it was evaluated the vitality of the infect cell cultures, and this was expressed as I.C.50.
(§9) I.C.50 (Inhibitory Concentration) indicates the concentration of the chemotherapic agent inhibiting the vitality of the cell cultures at a rate of 50%, when there is not infection.

[2] = system: HIV-1 clinical isolated, characterised by mutations in the RT gene inducing geno-phenotypic resistance to 3TC; experiment: p24 production susceptibility test (ACTG protocol), Table 3; type: cell-based
Source text: as §1, §2, §3, §4
At the same time non-infected cells were incubated with concentrations of chloroquine and hydroxychloroquine ranging from 0 to 50 uM to evaluate the toxicity of the compound.
as §6, §7, §8, §9

[3] = system: HIV-1 clinical isolated, characterised by mutations in the RT gene inducing geno-phenotypic resistance to d4T; experiment: p24 production susceptibility test (ACTG protocol), Table 4; type: cell-based
Source text: as §1, §2, §3, §4, §5, §6, §7, §8, §9

[4] = Gen M4IL M184V L210W R211KL 214F T215Y
[5] = Gen. M4IL E44D D67N M184V R211K T215Y
[6] = Gen. M41L D67N V118I M184V T215Y
[7] = Gen. K65R F77L Y115F Q151M M184V

**Q.** What does the source list for CCN(CC)CCCC(C)Nc1ccnc2cc(Cl)ccc12 (centres unmarked) [CQ, chloroquine]?
**A.** EC50 ([1]; Gen D67N K70R M184V T215Y): 2500 nM; EC50 ([1]; Gen D67N K70R T215F K70R): 3000 nM; EC50 ([1]; Gen K70R T215F K219Q): 1800 nM; EC50 [1, 4]: 2000 nM; EC50 ([1]; Gen M41I T215F): 2000 nM; EC50 ([1]; Gen M41L D67N K70R M184V T215Y): 2500 nM; EC50 ([1]; Gen M41L D67N K70R T215Y): 3000 nM; S.I. CQ ([1]; Gen D67N K70R M184V T215Y): 4.5; Fen. CQ (fold) ([1]; Gen D67N K70R M184V T215Y): 1.5X fold; S.I. CQ ([1]; Gen D67N K70R T215F K70R): 3; Fen. CQ (fold) ([1]; Gen D67N K70R T215F K70R): 1.3X fold; S.I. CQ ([1]; Gen K70R T215F K219Q): 5.5; Fen. CQ (fold) ([1]; Gen K70R T215F K219Q): 0.7X fold; S.I. CQ [1, 4]: 4.5; Fen. CQ (fold) [1, 4]: 1.1X fold; S.I. CQ ([1]; Gen M41I T215F): 4; Fen. CQ (fold) ([1]; Gen M41I T215F): 1.1X fold; S.I. CQ ([1]; Gen M41L D67N K70R M184V T215Y): 3.6; Fen. CQ (fold) ([1]; Gen M41L D67N K70R M184V T215Y): 1.3X fold; S.I. CQ ([1]; Gen M41L D67N K70R T215Y): 3.2; Fen. CQ (fold) ([1]; Gen M41L D67N K70R T215Y): 1.2X fold; EC50 [2, 5]: 3000 nM; EC50 [2, 6]: 3500 nM; EC50 ([2]; Gen. M184I): 2500 nM; EC50 ([2]; Gen. M184V): 3200 nM; S.I. CQ [2, 5]: 3; Fen. CQ (fold) [2, 5]: 2.1X fold; S.I. CQ [2, 6]: 3.4; Fen. CQ (fold) [2, 6]: 1.9X fold; S.I. CQ ([2]; Gen. M184I): 3.6; Fen. CQ (fold) ([2]; Gen. M184I): 1.1X fold; S.I. CQ ([2]; Gen. M184V): 2.5; Fen. CQ (fold) ([2]; Gen. M184V): 1.4X fold; EC50 [3, 7]: 3500 nM; EC50 ([3]; Gen. K65R F116Y Q151M): 3500 nM; EC50 ([3]; Gen. M41I T69SSS T215Y): 2800 nM; EC50 ([3]; Gen. T69SSS T215Y): 2800 nM; EC50 ([3]; Gen. V75I F77L F116Y Q151M): 2200 nM; S.I. CQ [3, 7]: 3.4; Fen. CQ (fold) [3, 7]: 2.3X fold; S.I. CQ ([3]; Gen. K65R F116Y Q151M): 3.4; Fen. CQ (fold) ([3]; Gen. K65R F116Y Q151M): 2.3X fold; S.I. CQ ([3]; Gen. M41I T69SSS T215Y): 3.4; Fen. CQ (fold) ([3]; Gen. M41I T69SSS T215Y): 1.8X fold

Source: US20040006103A1, “Use of chloroquine, hydroxychloroquine and 4 amino-quinolinic derivatives to obtain a drug for the anti retroviral therapy, active towards HIV sensitive strains and towards HIV strains which are resistant to both nucleosidic and non-nucleosidic reverse transcriptase inhibitors and to proteases …” (VALPHARMA S.A., priority 2002, published 2004)
